Test [1] addresses Receptor-type tyrosine-protein phosphatase F (Homo sapiens) (UniProt P10586). Briefly: Inhibition of LAR (unknown origin) assessed as hydrolysis of pNPP to pNP at 25 uM after 30 mins.
The target of test [2] is T1, Tyrosine-protein phosphatase non-receptor type 2 (Homo sapiens) (UniProt P17706).
T1 sequence (whole entry): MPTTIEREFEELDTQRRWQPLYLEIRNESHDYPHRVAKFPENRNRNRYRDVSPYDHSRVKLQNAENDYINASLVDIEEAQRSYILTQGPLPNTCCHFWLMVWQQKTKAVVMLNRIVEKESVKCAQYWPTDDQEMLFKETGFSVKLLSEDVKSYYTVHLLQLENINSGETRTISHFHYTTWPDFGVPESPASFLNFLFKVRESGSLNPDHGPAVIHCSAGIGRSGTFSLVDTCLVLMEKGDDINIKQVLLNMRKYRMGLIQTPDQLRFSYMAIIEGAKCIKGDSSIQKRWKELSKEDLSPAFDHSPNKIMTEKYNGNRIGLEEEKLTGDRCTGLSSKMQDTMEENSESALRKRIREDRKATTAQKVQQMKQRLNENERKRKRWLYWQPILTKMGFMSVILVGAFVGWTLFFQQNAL
Briefly: Inhibition of TCPTP (unknown origin) assessed as hydrolysis of pNPP to pNP at 25 uM after 30 mins.

Test [3] addresses T2, Tyrosine-protein phosphatase non-receptor type 1 (Homo sapiens, UniProt P18031).
T2 sequence (P18031 whole entry): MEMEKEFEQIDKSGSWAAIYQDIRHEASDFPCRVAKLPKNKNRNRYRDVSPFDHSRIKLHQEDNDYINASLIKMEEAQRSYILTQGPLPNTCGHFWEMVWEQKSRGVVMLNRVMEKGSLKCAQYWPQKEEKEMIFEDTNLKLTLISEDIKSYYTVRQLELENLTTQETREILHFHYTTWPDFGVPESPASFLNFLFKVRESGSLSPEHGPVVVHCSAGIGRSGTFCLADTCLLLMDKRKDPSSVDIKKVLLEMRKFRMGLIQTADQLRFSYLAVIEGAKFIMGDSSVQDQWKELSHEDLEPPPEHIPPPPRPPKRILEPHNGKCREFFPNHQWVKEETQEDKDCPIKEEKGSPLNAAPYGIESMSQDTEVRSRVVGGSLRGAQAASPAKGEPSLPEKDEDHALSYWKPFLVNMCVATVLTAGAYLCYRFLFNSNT
In words: Inhibition of recombinant PTP1B (unknown origin) assessed as hydrolysis of pNPP to pNP after 30 mins.

Test [4] has as its target T3, Tyrosine-protein phosphatase non-receptor type 6 (Homo sapiens, UniProt P29350). Briefly: Inhibition of SHP1 (unknown origin) assessed as hydrolysis of pNPP to pNP at 25 uM after 30 mins.
Test [5] deals with T4, Tyrosine-protein phosphatase non-receptor type 11 (Homo sapiens) (UniProt Q06124).
T4 sequence (whole entry): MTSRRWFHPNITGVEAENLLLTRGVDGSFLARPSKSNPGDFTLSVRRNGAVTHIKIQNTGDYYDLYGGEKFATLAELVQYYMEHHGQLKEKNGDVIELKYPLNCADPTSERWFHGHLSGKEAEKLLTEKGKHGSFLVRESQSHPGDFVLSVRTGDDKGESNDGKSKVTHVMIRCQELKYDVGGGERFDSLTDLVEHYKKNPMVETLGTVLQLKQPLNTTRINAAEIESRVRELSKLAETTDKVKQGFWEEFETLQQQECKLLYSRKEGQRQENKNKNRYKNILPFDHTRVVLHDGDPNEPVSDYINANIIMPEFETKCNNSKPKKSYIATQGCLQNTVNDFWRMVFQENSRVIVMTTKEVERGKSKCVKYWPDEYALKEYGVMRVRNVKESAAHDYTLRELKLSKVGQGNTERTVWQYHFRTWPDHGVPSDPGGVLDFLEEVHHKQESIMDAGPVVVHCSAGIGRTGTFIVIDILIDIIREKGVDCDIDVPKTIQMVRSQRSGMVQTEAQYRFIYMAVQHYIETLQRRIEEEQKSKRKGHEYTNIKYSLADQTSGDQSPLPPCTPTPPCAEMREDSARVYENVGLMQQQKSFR
In words: Inhibition of SHP2 (unknown origin) assessed as hydrolysis of pNPP to pNP at 25 uM after 30 mins.

Test [6] deals with T5, Tyrosine-protein phosphatase non-receptor type 1 (Homo sapiens) (UniProt P18031).
T5 sequence (whole entry): T2 sequence (P18031 whole entry)
In words: Inhibition of recombinant PTP1B (unknown origin) assessed as hydrolysis of pNPP to pNP at 25 uM after 30 mins.

The target of test [7] is T3, Tyrosine-protein phosphatase non-receptor type 6. In words: Inhibition of SHP1 (unknown origin) assessed as hydrolysis of pNPP to pNP after 30 mins.
The target in test [8] is T6, Tyrosine-protein phosphatase non-receptor type 2 (Homo sapiens, UniProt P17706).
T6 sequence (P17706 whole entry): T1 sequence (whole entry)
In words: Inhibition of TCPTP (unknown origin) assessed as hydrolysis of pNPP to pNP after 30 mins.

Test [9] deals with T7, Tyrosine-protein phosphatase non-receptor type 11 (Homo sapiens, UniProt Q06124).
T7 sequence (Q06124 whole entry): T4 sequence (whole entry)
In words: Inhibition of SHP2 (unknown origin) assessed as hydrolysis of pNPP to pNP after 30 mins.

For test [10], the species on record is Homo sapiens. In words: Selectivity ratio of IC50 for SHP1 (unknown origin) to IC50 for PTP1B (unknown origin).
For test [11], the system named is L6. In words: Increase in insulin stimulated glucose uptake in differentiated rat L6 myotube at 10 uM preincubated for 4 hrs followed by insulin stimulation for 10 mins and addition of 2-NBDG measured after 30 mins by 2-NBDG-based fluorescence analysis. The test is classed as functional.
The species named for test [12] is Homo sapiens. In words: Selectivity ratio of IC50 for TCPTP (unknown origin) to IC50 for PTP1B (unknown origin).
The test system of test [13] is CHO. Briefly: Inhibition of PTP1B in CHO cells transfected with human IRbeta expressing plasmid assessed as increase in phosphorylation level of IRbeta at 15 uM and 30 uM incubated for 4 hrs prior to insulin stimulation for 10 mins by SDS-PAGE analysis. The test is classed as cell-based. As to conditions: Cricetulus griseus.
The subject of test [14] is 3T3-L1. In words: Inhibition of PTP1B in IRbeta expressing mouse 3T3L1 cells assessed as increase in phosphorylation level of IRbeta at 15 uM and 30 uM prior to insulin stimulation by SDS-PAGE analysis. Type of test: cell-based.
The species named for test [15] is Homo sapiens. Briefly: Increase in insulin-stimulated glucose uptake in differentiated human skeletal muscle cells preincubated for 4 hrs followed by insulin stimulation for 10 mins and addition of 2-NBDG measured after 30 mins by 2-NBDG-based fluorescence analysis. Type of test: functional.
Test [16] deals with L6. In words: Increase in insulin stimulated glucose uptake in differentiated rat L6 myotube at 5 uM preincubated for 4 hrs followed by insulin stimulation for 10 mins and addition of 2-NBDG measured after 30 mins by 2-NBDG-based fluorescence analysis. The test is classed as functional.

The source made the active and inactive calls. The rule behind the calls is not given here. Some results are limits rather than exact numbers.

Receptor-type tyrosine-protein phosphatase F (Homo sapiens), sequence (P10586 whole entry): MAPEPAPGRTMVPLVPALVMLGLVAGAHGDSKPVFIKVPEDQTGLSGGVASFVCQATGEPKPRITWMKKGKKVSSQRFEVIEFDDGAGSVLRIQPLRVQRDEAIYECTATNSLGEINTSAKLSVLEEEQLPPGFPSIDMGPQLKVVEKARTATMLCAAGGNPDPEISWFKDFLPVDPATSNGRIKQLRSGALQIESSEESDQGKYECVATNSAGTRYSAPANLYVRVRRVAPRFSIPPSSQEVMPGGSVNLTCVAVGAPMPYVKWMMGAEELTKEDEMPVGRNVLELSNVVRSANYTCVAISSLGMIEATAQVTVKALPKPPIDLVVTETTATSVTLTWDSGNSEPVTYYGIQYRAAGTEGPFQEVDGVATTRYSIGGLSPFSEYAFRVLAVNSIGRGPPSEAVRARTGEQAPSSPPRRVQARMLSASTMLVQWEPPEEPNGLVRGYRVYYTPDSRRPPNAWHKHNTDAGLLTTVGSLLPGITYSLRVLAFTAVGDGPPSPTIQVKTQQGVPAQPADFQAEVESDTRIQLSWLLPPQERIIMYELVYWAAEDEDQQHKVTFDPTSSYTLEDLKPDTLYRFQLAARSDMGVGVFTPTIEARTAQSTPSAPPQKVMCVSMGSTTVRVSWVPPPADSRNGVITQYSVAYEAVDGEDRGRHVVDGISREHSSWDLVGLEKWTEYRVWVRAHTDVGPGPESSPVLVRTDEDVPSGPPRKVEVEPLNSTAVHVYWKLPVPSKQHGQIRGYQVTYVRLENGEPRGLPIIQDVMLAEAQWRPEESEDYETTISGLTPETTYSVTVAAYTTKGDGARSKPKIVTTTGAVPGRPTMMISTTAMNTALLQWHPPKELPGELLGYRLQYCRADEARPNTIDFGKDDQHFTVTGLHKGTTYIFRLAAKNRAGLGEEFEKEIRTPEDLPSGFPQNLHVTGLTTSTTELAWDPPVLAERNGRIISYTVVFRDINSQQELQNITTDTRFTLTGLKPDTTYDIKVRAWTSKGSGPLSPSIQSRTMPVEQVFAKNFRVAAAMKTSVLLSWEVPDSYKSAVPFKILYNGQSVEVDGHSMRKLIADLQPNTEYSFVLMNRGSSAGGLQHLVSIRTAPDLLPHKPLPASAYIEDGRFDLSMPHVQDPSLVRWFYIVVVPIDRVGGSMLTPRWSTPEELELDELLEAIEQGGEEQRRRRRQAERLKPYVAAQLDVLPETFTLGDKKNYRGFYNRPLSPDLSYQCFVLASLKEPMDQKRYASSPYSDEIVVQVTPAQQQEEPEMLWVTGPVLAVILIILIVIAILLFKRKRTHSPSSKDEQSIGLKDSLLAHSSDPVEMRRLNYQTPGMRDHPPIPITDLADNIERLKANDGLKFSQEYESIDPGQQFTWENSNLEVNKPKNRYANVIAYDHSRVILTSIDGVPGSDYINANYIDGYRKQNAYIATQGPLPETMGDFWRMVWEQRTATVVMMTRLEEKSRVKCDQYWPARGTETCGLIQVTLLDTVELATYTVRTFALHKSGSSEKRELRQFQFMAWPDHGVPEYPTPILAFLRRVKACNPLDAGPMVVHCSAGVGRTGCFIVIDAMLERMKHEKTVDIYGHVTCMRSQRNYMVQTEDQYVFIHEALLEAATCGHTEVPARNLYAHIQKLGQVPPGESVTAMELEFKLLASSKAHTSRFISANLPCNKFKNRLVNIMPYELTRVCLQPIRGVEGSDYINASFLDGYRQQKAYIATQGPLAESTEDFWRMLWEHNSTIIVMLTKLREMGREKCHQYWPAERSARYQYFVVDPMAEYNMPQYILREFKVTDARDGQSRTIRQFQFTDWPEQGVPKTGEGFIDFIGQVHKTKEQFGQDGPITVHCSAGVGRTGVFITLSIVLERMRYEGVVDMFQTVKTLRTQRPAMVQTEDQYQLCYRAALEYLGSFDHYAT
T3 sequence (P29350 whole entry): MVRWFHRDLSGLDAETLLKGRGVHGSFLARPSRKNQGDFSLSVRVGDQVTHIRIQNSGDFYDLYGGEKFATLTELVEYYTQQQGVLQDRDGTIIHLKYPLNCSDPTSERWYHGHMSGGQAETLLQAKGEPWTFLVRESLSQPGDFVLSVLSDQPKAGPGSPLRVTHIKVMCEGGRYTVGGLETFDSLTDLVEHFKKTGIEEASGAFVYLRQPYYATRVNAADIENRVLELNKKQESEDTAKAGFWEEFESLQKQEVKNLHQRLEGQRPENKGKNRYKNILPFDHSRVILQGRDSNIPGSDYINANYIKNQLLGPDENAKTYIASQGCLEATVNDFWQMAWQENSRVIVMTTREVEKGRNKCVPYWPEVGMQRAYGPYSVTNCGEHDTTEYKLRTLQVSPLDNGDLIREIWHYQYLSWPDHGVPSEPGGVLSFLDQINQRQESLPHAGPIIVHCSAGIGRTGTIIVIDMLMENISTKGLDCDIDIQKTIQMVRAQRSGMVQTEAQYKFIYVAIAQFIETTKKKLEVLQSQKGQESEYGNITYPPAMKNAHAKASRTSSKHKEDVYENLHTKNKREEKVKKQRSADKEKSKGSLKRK

Usually inhibition stands for how much of the control response was suppressed. A word on the IC50: it is the concentration needed to halve the response being measured. For `COC(=O)CN(c1ccc(CN(c2ccc(CN(Cc3ccccc3)S(C)(=O)=O)cc2)S(=O)(=O)c2ccc(OC)cc2)cc1)S(C)(=O)=O`, the inhibition in test [1], in [2], in test [4] and in test [5] was less than 50% each time. In addition, the IC50 in test [3] is 346 nM.

Take `COC(=O)CN(c1ccc(CN(c2ccc(N(Cc3cccc(Cl)c3)S(C)(=O)=O)cc2)S(=O)(=O)Cc2ccccc2)cc1)S(C)(=O)=O`: the inhibition in test [6] was less than 50%.

Turning to `COC(=O)CN(c1ccc(CN(c2ccc(CN(Cc3ccccc3)S(C)(=O)=O)cc2)S(=O)(=O)Cc2ccccc2)cc1)S(C)(=O)=O`, in [6], the inhibition was less than 50%.

For the molecule `COC(=O)CN(c1ccc(CN(c2ccc(CN(Cc3ccccc3)S(C)(=O)=O)cc2)S(=O)(=O)c2ccccc2)cc1)S(C)(=O)=O`, the IC50 in test [3] is 16100 nM.

With `CCCCOc1ccc(S(=O)(=O)N(Cc2ccc(N(CC(=O)OC)S(C)(=O)=O)cc2)c2ccc(NS(=O)(=O)Cc3ccccc3)cc2)cc1`, the IC50 in test [3] is 1710 nM.

Take `COC(=O)CN(c1ccc(CN(c2ccc(CN(Cc3ccc(C)cc3)S(C)(=O)=O)cc2)S(=O)(=O)Cc2ccccc2)cc1)S(C)(=O)=O`: in [3], the IC50 came out at 20300 nM.

For the molecule `CCCCOc1ccc(S(=O)(=O)N(Cc2ccc(N(CC(=O)OC)S(C)(=O)=O)cc2)c2ccc(CN(Cc3ccccc3)S(C)(=O)=O)cc2)cc1`, the IC50 in test [3] was determined as 896 nM.

On to `CCCOc1ccc(S(=O)(=O)N(Cc2ccc(N(CC(=O)OC)S(C)(=O)=O)cc2)c2ccc(CN(Cc3ccccc3)S(C)(=O)=O)cc2)cc1`, for which, in [3], the IC50 turned out to be 902 nM.

For the molecule `CCS(=O)(=O)N(CC(=O)OC)c1ccc(CN(c2ccc(CN(Cc3cccc(Cl)c3)S(C)(=O)=O)cc2)S(=O)(=O)Cc2ccccc2)cc1`, the inhibition in test [6] was less than 50%.

Take `CCOc1ccc(S(=O)(=O)Nc2ccc(N(Cc3ccc(N(CC(=O)OC)S(=O)(=O)CC)cc3)S(=O)(=O)Cc3ccccc3)cc2)cc1`: the inhibition in test [1] and in [5] was less than 50% in each case. Besides, the IC50 in test [7] is 11400 nM; in test [3], 470 nM; in test [8] it was 1920 nM.

Consider `COC(=O)CN(c1ccc(CN(c2ccc(N(Cc3ccccc3)S(C)(=O)=O)cc2)S(=O)(=O)Cc2ccccc2)cc1)S(C)(=O)=O`, for which the inhibition in test [1] and in test [2] was less than 50% in each case. The values for the IC50 in [7], in [3] and in test [9] were 9610 nM, 492 nM and 11600 nM, respectively. Further, in test [10], the Ratio IC50 is 20.

On to `CCOc1ccc(S(=O)(=O)N(Cc2ccc(N(CC(=O)OC)S(C)(=O)=O)cc2)c2ccc(CN(Cc3ccccc3)S(C)(=O)=O)cc2)cc1`, for which the inhibition in test [1] and in [5] was less than 50% in each case. Besides, the Activity in [11] is 29.3%; in test [15], “Dose-dependent effect”; in test [16], 23.3%. Moreover, the results for the IC50 in test [7], in [3] and in [8] were 2310 nM, 222 nM and 1860 nM, respectively. Further, the results for the Ratio IC50 in [12] and in test [10] were 8 and 10, respectively. In addition, the inhibition entry in [13] and in [14] was “Active” in each case.

For the origin of these results see ChEMBL document CHEMBL3632526, “Novel, potent, selective and cellular active ABC type PTP1B inhibitors containing (methanesulfonyl-phenyl-amino)-acetic acid methyl ester phosphotyrosine mimetic” (Bioorg Med Chem, 2015).
